Experimental data published in the supplement of paper PMC6045584.
± gives the standard deviation of the averaged measurements.

What follows are test systems tested with Cc1ccc(-c2cc(C(F)(F)F)nn2-c2ccc(S(N)(=O)=O)cc2)cc1 [CELECOXIB] (assay: surviving fraction relative to DMSO-only wells; higher = less growth inhibition). Conditions: 0.5 nM; exposure time: 5 days.
Outline: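 For each tumour cell line, log-phase cells were put into 384-well plates at 250–500 cells per well, then after 24 hours exposed continuously for five days to inhibitors at 0.5, 1, 5, 10, 50, 100, 500 and 1000 nM. Viability was assessed by CellTiter-Glo luminescence, with surviving fraction expressed relative to the median of DMSO-only wells. Lines were screened three times and retained only if replicate Pearson r exceeded 0.7 and median Z' exceeded 0.3.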

| Test System | surviving fraction |
| --- | --- |
| CADOES1 SOFT TISSUE | 0.792 ± 0.11 |
| SAOS2 BONE | 1.14 ± 0.078 |
| MDAMB436 BREAST | 0.986 ± 0.11 |
| 93VU HEADNECK | 1.02 ± 0.064 |
| KPD BONE | 1.04 ± 0.1 |
| SYO1 SYNOVIAL | 0.952 ± 0.052 |
| BT20 BREAST | 1.14 ± 0.085 |
| SUM44 BREAST | 1.28 ± 0.4 |
| CAL120 BREAST | 0.962 ± 0.045 |
| CHLA90 AUTONOMIC GANGLIA | 1.01 ± 0.048 |
| HCC1806 BREAST | 1.08 ± 0.049 |
| HCC78 LUNG | 0.815 ± 0.2 |
| MFM223 BREAST | 1.41 ± 0.52 |
| SG43 HEADNECK | 0.96 ± 0.3 |
| HOS BONE | 1 ± 0.013 |
| MDAMB468 BREAST | 1.05 ± 0.043 |

| Test System | surviving fraction |
| --- | --- |
| SG27 HEADNECK | 1.18 ± 0.086 |
| ZR751 BREAST | 1.1 ± 0.19 |
| HSSYII SYNOVIAL | 1.04 ± 0.019 |
| MG63 BONE | 1.04 ± 0.045 |
| HS57T BREAST | 1.028 ± 0.0046 |
| SUM159 BREAST | 1.07 ± 0.032 |
| HCC1395 BREAST | 1.17 ± 0.084 |
| SUM149.B1*.S BREAST | 1.075 ± 0.01 |
| MDAMB453 BREAST | 1.07 ± 0.076 |
| SCC90 HEADNECK | 0.978 ± 0.063 |
| HMLE3 BREAST | 1.08 ± 0.07 |
| HCC70 BREAST | 1.07 ± 0.049 |
| LNCAP PROSTATE | 1.02 ± 0.042 |
| HCT15 LARGE INTESTINE | 1.02 ± 0.062 |
| MHM BONE | 1.01 ± 0.038 |
| VCAP PROSTATE | 1.07 ± 0.068 |

Same assay, conditions: 1 nM; exposure time: 5 days

| Test System | surviving fraction |
| --- | --- |
| CADOES1 SOFT TISSUE | 0.925 ± 0.091 |
| SAOS2 BONE | 1.05 ± 0.026 |
| MDAMB436 BREAST | 1.09 ± 0.23 |
| 93VU HEADNECK | 1.11 ± 0.076 |
| KPD BONE | 1.01 ± 0.054 |
| SYO1 SYNOVIAL | 0.998 ± 0.055 |
| BT20 BREAST | 1.1 ± 0.035 |
| SUM44 BREAST | 1.25 ± 0.47 |
| CAL120 BREAST | 0.979 ± 0.039 |
| CHLA90 AUTONOMIC GANGLIA | 0.999 ± 0.058 |
| HCC1806 BREAST | 1.01 ± 0.16 |
| HCC78 LUNG | 0.894 ± 0.038 |
| MFM223 BREAST | 1.3 ± 0.2 |
| SG43 HEADNECK | 1.22 ± 0.49 |
| HOS BONE | 1.028 ± 0.0093 |
| MDAMB468 BREAST | 1.05 ± 0.097 |

| Test System | surviving fraction |
| --- | --- |
| SG27 HEADNECK | 1.14 ± 0.069 |
| ZR751 BREAST | 1.1 ± 0.077 |
| HSSYII SYNOVIAL | 1.01 ± 0.014 |
| MG63 BONE | 1.04 ± 0.046 |
| HS57T BREAST | 1.04 ± 0.052 |
| SUM159 BREAST | 1.1 ± 0.031 |
| HCC1395 BREAST | 1.2 ± 0.13 |
| SUM149.B1*.S BREAST | 1.09 ± 0.021 |
| MDAMB453 BREAST | 1.1 ± 0.079 |
| SCC90 HEADNECK | 1.09 ± 0.13 |
| HMLE3 BREAST | 1.06 ± 0.032 |
| HCC70 BREAST | 1.045 ± 0.0081 |
| LNCAP PROSTATE | 0.956 ± 0.067 |
| HCT15 LARGE INTESTINE | 1.03 ± 0.031 |
| MHM BONE | 1.01 ± 0.027 |
| VCAP PROSTATE | 1.08 ± 0.17 |

Same assay, conditions: 5 nM; exposure time: 5 days

| Test System | surviving fraction |
| --- | --- |
| CADOES1 SOFT TISSUE | 0.807 ± 0.17 |
| SAOS2 BONE | 1.187 ± 0.01 |
| MDAMB436 BREAST | 1.03 ± 0.085 |
| 93VU HEADNECK | 1.1 ± 0.043 |
| KPD BONE | 1.11 ± 0.065 |
| SYO1 SYNOVIAL | 0.985 ± 0.065 |
| BT20 BREAST | 1.08 ± 0.059 |
| SUM44 BREAST | 1.35 ± 0.54 |
| CAL120 BREAST | 0.964 ± 0.067 |
| CHLA90 AUTONOMIC GANGLIA | 0.99 ± 0.054 |
| HCC1806 BREAST | 1.11 ± 0.084 |
| HCC78 LUNG | 0.89 ± 0.28 |
| MFM223 BREAST | 1.29 ± 0.26 |
| SG43 HEADNECK | 0.942 ± 0.31 |
| HOS BONE | 1.02 ± 0.012 |
| MDAMB468 BREAST | 1.16 ± 0.054 |

| Test System | surviving fraction |
| --- | --- |
| SG27 HEADNECK | 1.14 ± 0.09 |
| ZR751 BREAST | 1.05 ± 0.07 |
| HSSYII SYNOVIAL | 0.979 ± 0.07 |
| MG63 BONE | 1.09 ± 0.038 |
| HS57T BREAST | 1.06 ± 0.022 |
| SUM159 BREAST | 1.09 ± 0.032 |
| HCC1395 BREAST | 1.32 ± 0.041 |
| SUM149.B1*.S BREAST | 1.13 ± 0.075 |
| MDAMB453 BREAST | 1.09 ± 0.072 |
| SCC90 HEADNECK | 1.09 ± 0.11 |
| HMLE3 BREAST | 1.08 ± 0.1 |
| HCC70 BREAST | 1.08 ± 0.067 |
| LNCAP PROSTATE | 0.986 ± 0.057 |
| HCT15 LARGE INTESTINE | 1.06 ± 0.039 |
| MHM BONE | 1.04 ± 0.03 |
| VCAP PROSTATE | 1.06 ± 0.067 |

Same assay, conditions: 10 nM; exposure time: 5 days

| Test System | surviving fraction |
| --- | --- |
| CADOES1 SOFT TISSUE | 0.984 ± 0.052 |
| SAOS2 BONE | 1.14 ± 0.06 |
| MDAMB436 BREAST | 1.04 ± 0.11 |
| 93VU HEADNECK | 1.08 ± 0.16 |
| KPD BONE | 1.07 ± 0.029 |
| SYO1 SYNOVIAL | 0.9986 ± 0.0091 |
| BT20 BREAST | 1.19 ± 0.077 |
| SUM44 BREAST | 1.26 ± 0.34 |
| CAL120 BREAST | 0.99 ± 0.049 |
| CHLA90 AUTONOMIC GANGLIA | 1.03 ± 0.12 |
| HCC1806 BREAST | 1.1 ± 0.18 |
| HCC78 LUNG | 1.05 ± 0.18 |
| MFM223 BREAST | 1.33 ± 0.34 |
| SG43 HEADNECK | 0.929 ± 0.28 |
| HOS BONE | 1.018 ± 0.0023 |
| MDAMB468 BREAST | 1.17 ± 0.11 |

| Test System | surviving fraction |
| --- | --- |
| SG27 HEADNECK | 1.13 ± 0.046 |
| ZR751 BREAST | 1.07 ± 0.076 |
| HSSYII SYNOVIAL | 1.08 ± 0.028 |
| MG63 BONE | 1.08 ± 0.033 |
| HS57T BREAST | 1.09 ± 0.08 |
| SUM159 BREAST | 1.08 ± 0.048 |
| HCC1395 BREAST | 1.26 ± 0.053 |
| SUM149.B1*.S BREAST | 1.12 ± 0.016 |
| MDAMB453 BREAST | 1.18 ± 0.1 |
| SCC90 HEADNECK | 1.01 ± 0.077 |
| HMLE3 BREAST | 1.06 ± 0.025 |
| HCC70 BREAST | 1.13 ± 0.091 |
| LNCAP PROSTATE | 1.01 ± 0.081 |
| HCT15 LARGE INTESTINE | 1.04 ± 0.022 |
| MHM BONE | 1.08 ± 0.057 |
| VCAP PROSTATE | 1.14 ± 0.1 |
